For one test, the system named is A431 (ATCC: CRL-1555). The experiment in a line: Test of cancer cell growth inhibition (SRB), A431. The settings on record: read-out: IC50 A431.
A further test has as its system SK-Br3 (ATCC: HTB-30). The experiment in a line: Test of cancer cell growth inhibition (SRB), SK-Br3. The settings on record: read-out: IC50 SK-Br-3.
Where [1] appears, read: EGFR overexpressed A431, 72 hours, SRB.

SMILES strings stand for the structures. Like-named read-outs stand apart in the source and are kept apart here.

With `C=CC(=O)N1CCC[C@H]1C(=O)Nc1cc2c(Nc3ccc(OCc4ccccn4)c(Cl)c3)ncnc2cc1OC1CCCC1` [Example 173, (2S)-1-acryloyl-pyrrolidine-2-carboxylic acid {4-[3-chloro-4-(pyridin-2-ylmethoxy)-phenylamino]-7-cyclopentyloxy-quinazolin-6-yl}-amide], the IC50 in the test with A431 (ATCC: CRL-1555) (Homo sapiens, A-431, 72 h) was 552 nM; in the test on SK-Br3 (ATCC: HTB-30) (Homo sapiens, SK-BR-3, 72 h), 29 nM.
As for `C=CC(=O)NCCC(=O)Nc1ccc2ncnc(Nc3ccc(OCc4ccncc4)c(Cl)c3)c2c1` [Example 174, N-(2-{4-[3-chloro-4-(pyridin-4-ylmethoxy)-phenylamino]-quinazolin-6-ylcarbamoyl}-ethyl)-acrylamide], the IC50 in the test on A431 (ATCC: CRL-1555) (Homo sapiens, A-431, 72 h) came to 956 nM; in the test on SK-Br3 (ATCC: HTB-30) (Homo sapiens, SK-BR-3, 72 h), 35 nM.
On to `COc1cc2ncnc(Nc3ccc(OCc4ccccn4)c(Cl)c3)c2cc1NC(=O)[C@@H]1CCCN1C(=O)C=CCN(C)C` [Example 175, (2S)-1-(4-dimethylamino-buten-2-oyl)-pyrrolidine-2-carboxylic acid {4-[3-chloro-4-(pyridin-2-ylmethoxy)-phenylamino]-7-methoxy-quinazolin-6-yl}-amide], for which the IC50 in the test on A431 (ATCC: CRL-1555) (setting [1]) was 48 nM; in the test with SK-Br3 (ATCC: HTB-30) (Erb-B2 overexpressed SK-Br3, 72 hours, SRB), 26 nM.
In the case of `C=CC(=O)N1CCC[C@H]1C(=O)Nc1cc2c(Nc3ccc(OCc4ccccn4)c(Cl)c3)ncnc2cc1Cl` [Example 176, (2S)-1-acryloyl-pyrrolidine-2-carboxylic acid {7-chloro-4-[3-chloro-4-(pyridin-2-ylmethoxy)-phenylamino]-quinazolin-6-yl}-amide], the IC50 in the test on A431 (ATCC: CRL-1555) (Homo sapiens, A-431, 72 h) worked out at 517 nM; in the test on SK-Br3 (ATCC: HTB-30) (Homo sapiens, SK-BR-3, 72 h), 34 nM.
Regarding `C=CC(=O)N1CCC[C@H]1C(=O)Nc1cc2c(Nc3ccc(OCc4ccccn4)c(C)c3)ncnc2cc1F` [Example 177, (2S)-1-acryloyl-pyrrolidine-2-carboxylic acid {7-fluoro-4-[3-methyl-4-(pyridin-2-ylmethoxy)-phenylamino]-quinazolin-6-yl}-amide], the IC50 in the test on A431 (ATCC: CRL-1555) (Homo sapiens, A-431, 72 h) was determined as 78 nM; with SK-Br3 (ATCC: HTB-30) (Homo sapiens, SK-BR-3, 72 h) it was 9 nM.
For `C=CC(=O)N1CC=C[C@H]1C(=O)Nc1cc2c(Nc3ccc(OCc4ccccn4)c(Cl)c3)ncnc2cc1OC` [Example 179, (2S)-1-acryloyl-2,5-dihydro-1H-pyrrol-2-carboxylic acid {4-[3-chloro-4-(pyridin-2-ylmethoxy)-phenylamino]-7-methoxy-quinazolin-6-yl}-amide], the IC50 worked out at 121 nM in the test with A431 (ATCC: CRL-1555) (Homo sapiens, A-431, 72 h) and 17 nM with SK-Br3 (ATCC: HTB-30) (Homo sapiens, SK-BR-3, 72 h).
The matching figures for `C=CC(=O)N1CSC[C@H]1C(=O)Nc1cc2c(Nc3ccc(OCc4ccccn4)c(Cl)c3)ncnc2cc1OC` [Example 180, (4R)-3-acryloyl-thiazolidin-4-carboxylic acid {4-[3-chloro-4-(pyridin-2-ylmethoxy)-phenylamino]-7-methoxy-quinazolin-6-yl}-amide]: 438 nM and 63 nM.
Turning to `C=CC(=O)N1CCC1C(=O)Nc1ccc2ncnc(Nc3ccc(OCc4ccccn4)c(Cl)c3)c2c1` (centres unmarked) [Example 181, 1-acryloyl-azetidine-2-carboxylic acid {4-[3-chloro-4-(pyridin-2-ylmethoxy)-phenylamino]-quinazolin-6-yl}-amide], the IC50 with A431 (ATCC: CRL-1555) (setting [1]) stood at 218 nM; in the test on SK-Br3 (ATCC: HTB-30) (Homo sapiens, SK-BR-3, 72 h), 13 nM.
As to `C=CC(=O)N1CCC1C(=O)Nc1cc2c(Nc3ccc(OCc4ccccn4)c(Cl)c3)ncnc2cc1OC` (centres unmarked) [Example 182, 1-acryloyl-azetidine-2-carboxylic acid {4-[3-chloro-4-(pyridin-2-ylmethoxy)-phenylamino]-7-methoxy-quinazolin-6-yl}-amide], the IC50 in the test with A431 (ATCC: CRL-1555) (Homo sapiens, A-431, 72 h) was 128 nM; in the test with SK-Br3 (ATCC: HTB-30) (Homo sapiens, SK-BR-3, 72 h), 9 nM.
`C=CC(=O)N1CCC[C@H]1C(=O)Nc1cc2c(Nc3ccc(OCc4ccccn4)c(Cl)c3)ncnc2cc1N(C)C` [Example 184, (2S)-1-acryloyl-pyrrolidine-2-carboxylic acid {4-[3-chloro-4-(pyridin-2-ylmethoxy)-phenylamino]-7-dimethylamino-quinazolin-6-yl}-amide]: the IC50 in the test on A431 (ATCC: CRL-1555) (Homo sapiens, A-431, 72 h) was determined as 1420 nM; in the test on SK-Br3 (ATCC: HTB-30) (Homo sapiens, SK-BR-3, 72 h), 114 nM.
As for `C=CC(=O)N1CCC[C@H]1C(=O)Nc1cc2c(Nc3ccc4c(cnn4Cc4ccccn4)c3)ncnc2cc1OC` [Example 185, (2S)-1-acryloyl-pyrrolidine-2-carboxylic acid [7-methoxy-4-(1-pyridin-2-ylmethyl-1H-indazol-5-ylamino)-quinazolin-6-yl]-amide], the concentration for half-maximal inhibition (IC50) with A431 (ATCC: CRL-1555) (Homo sapiens, A-431, 72 h) is 22 nM; with SK-Br3 (ATCC: HTB-30) (Homo sapiens, SK-BR-3, 72 h), 3 nM.
For `C=CC(=O)N1CCC[C@H]1C(=O)Nc1cc2c(Nc3ccc(OCc4ccccn4)c(C)c3)ncnc2cc1OCC` [Example 186, (2S)-1-acryloyl-pyrrolidine-2-carboxylic acid {4-[3-methyl-4-(pyridin-2-ylmethoxy)-phenylamino]-7-ethoxy-quinazolin-6-yl}-amide], the IC50 was determined as 26 nM in the test with A431 (ATCC: CRL-1555) (Homo sapiens, A-431, 72 h) and 8 nM in the test with SK-Br3 (ATCC: HTB-30) (Homo sapiens, SK-BR-3, 72 h).
As for `C=CC(=O)N1CCC[C@H]1C(=O)Nc1cc2c(Nc3ccc(OCc4ccccn4)c(Cl)c3)ncnc2cc1OCCF` [Example 187, (2S)-1-acryloyl-pyrrolidine-2-carboxylic acid [4-[3-chloro-4-(pyridin-2-ylmethoxy)-phenylamino]-7-(2-fluoro-ethoxy)-quinazolin-6-yl]-amide], the IC50 in the test on A431 (ATCC: CRL-1555) (Homo sapiens, A-431, 72 h) was determined as 22 nM; with SK-Br3 (ATCC: HTB-30) (Homo sapiens, SK-BR-3, 72 h) it was 3 nM.
Regarding `C=CC(=O)N1CCC[C@H]1C(=O)Nc1cc2c(Nc3ccc4c(cnn4Cc4cccc(F)c4)c3)ncnc2cc1OC` [Example 188, (2S)-1-acryloyl-pyrrolidine-2-carboxylic acid {4-[1-(3-fluoro-benzyl)-1H-indazol-5-ylamino]-7-methoxy-quinazolin-6-yl}-amide], the IC50 in the test on A431 (ATCC: CRL-1555) (Homo sapiens, A-431, 72 h) came to 24 nM; with SK-Br3 (ATCC: HTB-30) (Homo sapiens, SK-BR-3, 72 h) it was 6 nM.
The matching figures for `C=CC(=O)N(C)[C@@H](C)C(=O)Nc1cc2c(Nc3ccc(OCc4ccccn4)c(Cl)c3)ncnc2cc1OC` [Example 191, (1S)—N-(1-{4-[3-chloro-4-(pyridin-2-ylmethoxy)-phenylamino]-7-methoxy-quinazolin-6-ylcarbamoyl}ethyl)-N-methyl-acrylamide]: 56 nM and 3 nM.
For `C=CC(=O)NCCC(=O)Nc1cc2c(Nc3ccc(OCc4ccccn4)c(Cl)c3)ncnc2cc1F` [Example 192, N-(2-{4-[3-chloro-4-(pyridin-2-ylmethoxy)-phenylamino]-7-fluoro-quinazolin-6-ylcarbamoyl}-ethyl)-acrylamide] the same measures were 36 nM and 6 nM.
For `C=CC=CCn1ncc2cc(Nc3ncnc4cc(OC)c(NC(=O)[C@@H]5CCCN5C(=O)C=C)cc34)ccc21` [Example 193, (2S)-1-acryloyl-pyrrolidine-2-carboxylic acid [7-methoxy-4-(1-penta-2,4-dienyl-1H-indazol-5-ylamino)-quinazolin-6-yl]-amide] the same measures were 75 nM and 22 nM.
Take `C=CC(=O)N1CCC[C@H]1C(=O)Nc1cc2c(Nc3ccc(OCc4cccc(C)n4)c(Cl)c3)ncnc2cc1OC` [Example 194, (2S)-1-acryloyl-pyrrolidine-2-carboxylic acid {4-[3-chloro-4-(6-methyl-pyridin-2-ylmethoxy)-phenylamino]-7-methoxy-quinazolin-6-yl}-amide]: the IC50 in the test with A431 (ATCC: CRL-1555) (Homo sapiens, A-431, 72 h) came out at 93 nM; with SK-Br3 (ATCC: HTB-30) (Homo sapiens, SK-BR-3, 72 h), 56 nM.
For `C=CC(=O)N1CCC1C(=O)Nc1cc2c(Nc3ccc(OCc4ccccn4)c(Cl)c3)ncnc2cc1F` (centres unmarked) [Example 195, 1-acryloyl-azetidine-2-carboxylic acid {4-[3-chloro-4-(pyridin-2-ylmethoxy)-phenylamino]-7-fluoro-quinazolin-6-yl}-amide] the same measures were 119 nM and 44 nM.
For `C=CC(=O)N1CCCCC1C(=O)Nc1cc2c(Nc3ccc(OCc4ccccn4)c(Cl)c3)ncnc2cc1OC` (centres unmarked) [Example 196, 1-acryloyl-piperidine-2-carboxylic acid {4-[3-chloro-4-(pyridin-2-ylmethoxy)-phenylamino]-7-methoxy-quinazolin-6-yl}-amide] the same measures were 88 nM and 25 nM.
Regarding `C=CC(=O)N1CCC(C(=O)Nc2cc3c(Nc4ccc(OCc5ccccn5)c(Cl)c4)ncnc3cc2OC)CC1` [Example 197, 1-acryloyl-piperidine-4-carboxylic acid {4-[3-chloro-4-(pyridin-2-ylmethoxy)-phenylamino]-7-methoxy-quinazolin-6-yl}-amide], the IC50 in the test on A431 (ATCC: CRL-1555) (Homo sapiens, A-431, 72 h) stood at 259 nM; in the test with SK-Br3 (ATCC: HTB-30) (Homo sapiens, SK-BR-3, 72 h), 196 nM.
As to `C=CC(=O)N1CCC(C(=O)Nc2cc3c(Nc4ccc(OCc5ccccn5)c(Cl)c4)ncnc3cc2OC)C1` (centres unmarked) [Example 198, 1-acryloyl-pyrrolidine-3-carboxylic acid {4-[3-chloro-4-(pyridin-2-ylmethoxy)-phenylamino]-7-methoxy-quinazolin-6-yl}-amide], the IC50 in the test with A431 (ATCC: CRL-1555) (Homo sapiens, A-431, 72 h) was determined as 47 nM; with SK-Br3 (ATCC: HTB-30) (Homo sapiens, SK-BR-3, 72 h), 24 nM.
For the compound `C=CC(=O)N1CCC1C(=O)Nc1cc2c(Nc3ccc(OCc4ccccn4)c(Cl)c3)ncnc2cc1OCC` (centres unmarked) [Example 199, 1-acryloyl-azetidine-2-carboxylic acid {4-[3-chloro-4-(pyridin-2-ylmethoxy)-phenylamino]-7-ethoxy-quinazolin-6-yl}-amide], the IC50 in the test on A431 (ATCC: CRL-1555) (Homo sapiens, A-431, 72 h) was found to be 145 nM; with SK-Br3 (ATCC: HTB-30) (Homo sapiens, SK-BR-3, 72 h) it was 96 nM.
The matching figures for `C=CC(=O)N1CC(C(=O)Nc2cc3c(Nc4ccc(OCc5ccccn5)c(Cl)c4)ncnc3cc2OC)C1` [Example 200, 1-acryloyl-azetidine-3-carboxylic acid {4-[3-chloro-4-(pyridin-2-ylmethoxy)-phenylamino]-7-methoxy-quinazolin-6-yl}-amide]: 332 nM and 8 nM.
Regarding `C=CC(=O)N1CCC[C@H](C(=O)Nc2cc3c(Nc4ccc(OCc5ccccn5)c(Cl)c4)ncnc3cc2OC)C1` [Example 201, (3S)-1-acryloyl-piperidine-3-carboxylic acid {4-[3-chloro-4-(pyridin-2-ylmethoxy)-phenylamino]-7-methoxy-quinazolin-6-yl}-amide], the IC50 in the test on A431 (ATCC: CRL-1555) (Homo sapiens, A-431, 72 h) came out at 148 nM; with SK-Br3 (ATCC: HTB-30) (Homo sapiens, SK-BR-3, 72 h), 25 nM.

Values taken from patent US8003658B2, “Quinazoline derivatives for inhibiting cancer cell growth and method for the preparation thereof” (Hanmi Holdings Co., Ltd., priority 2004, dated 2011).
